# Source: ChEMBL document CHEMBL4130360, “Synthesis of 2-imino and 2-hydrazono thiazolo[4,5-d]pyrimidines as corticotropin releasing factor (CRF) antagonists” (Eur J Med Chem, 2017)
# pIC50: −log10 of the molar value.
# Biological target: T1, Corticotropin-releasing factor receptor 1 (Homo sapiens, UniProt P34998)
# T1 sequence (P34998 whole entry): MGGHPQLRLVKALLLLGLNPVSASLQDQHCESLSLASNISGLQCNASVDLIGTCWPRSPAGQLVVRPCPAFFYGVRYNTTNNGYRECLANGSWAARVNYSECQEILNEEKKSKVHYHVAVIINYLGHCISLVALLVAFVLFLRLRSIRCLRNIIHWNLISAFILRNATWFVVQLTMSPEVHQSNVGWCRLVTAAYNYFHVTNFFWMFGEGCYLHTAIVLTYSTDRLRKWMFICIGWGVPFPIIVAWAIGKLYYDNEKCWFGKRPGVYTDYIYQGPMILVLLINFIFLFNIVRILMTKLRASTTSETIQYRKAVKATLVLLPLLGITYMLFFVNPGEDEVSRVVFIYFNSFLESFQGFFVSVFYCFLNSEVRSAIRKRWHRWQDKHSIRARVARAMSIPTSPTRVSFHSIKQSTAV
# Assay: Displacement of [125I]-Tyr0-sauvagine from human CRFR1 expressed in HEK293 cell membrane homogenates after 120 mins by gamma counting method
# Format: cell membranes
row,pIC50,Structure (SMILES)
1,6.35,CCN(CC)c1nc(C)nc2c1s/c(=N/N)n2-c1c(C)cc(C)cc1C
2,6.77,CCCCN(CC)c1nc(C)nc2c1sc(=N)n2-c1c(C)cc(C)cc1C
3,6.05,CCN(CC)c1nc(C)nc2c1sc(=N)n2-c1c(C)cc(C)cc1C
